# Tested on: Pseudomonas aeruginosa
# Test: Test for determining the reduction of Pseudomonas aeruginosa according to EN 1276
# Assay type: cell-based
# Conditions: for reduction of Pseudomonas aeruginosa (antibacterial effect): EN 1276
# Experimental: The washing agent was used in a test for determining the reduction of Pseudomonas aeruginosa according to EN 1276. The obtained value served as a reference. 0.10 wt. % GLDA or 0.50 wt. % were then added to the washing agent and likewise used in the test for determining the reduction of Pseudomonas aeruginosa according to EN 1276. The all-purpose cleaner was used in a test for determining the reduction of Pseudomonas aeruginosa according to EN 1276. The obtained value served as a reference. 0.10 wt. % GLDA or 0.50 wt. % were then added to the all-purpose cleaner and likewise used in the test for determining the reduction of Pseudomonas aeruginosa according to EN 1276.
compound,measurement,setting,value
"O=C(O)CC[C@@H](C(=O)O)N(CC(=O)O)CC(=O)O [Glutamic acid diacetic acid (GLDA), glutamic acid-N,N-diacetic acid]",reduction of Pseudomonas aeruginosa (antibacterial effect),"Table 1, Example 1, concentration glutamic acid diacetic acid 0.10% (according to the invention)",7.65E+00
same,reduction of Pseudomonas aeruginosa (antibacterial effect),"Table 1, Example 1, concentration glutamic acid diacetic acid 0.50% (according to the invention)",6.90E+01
same,reduction of Pseudomonas aeruginosa (antibacterial effect),"Table 2, Example 2, concentration glutamic acid diacetic acid 0.10% (according to the invention)",7.65E+00
same,reduction of Pseudomonas aeruginosa (antibacterial effect),"Table 2, Example 2, concentration glutamic acid diacetic acid 0.50% (according to the invention)",6.90E+01
same,antimicrobial / antibacterial effect (in words),substance on its own (GLDA itself; agent exclusively comprising QAC),does not have an antimicrobial effect
